Test results reported in patent US20190078161A1, “METHOD FOR IDENTIFYING CLINICAL TRIAL RESPONDERS FROM A PLACEBO GROUP IN MAJOR DEPRESSION” (Tekada Pharmaceutical Company Limited, priority 2016, published 2019).

Key:
Format in all cases: in vivo, human
[1] = test system: adult patients with MDD; test: TAK-316 Trial: change from baseline in MADRS total score, 8 weeks of treatment
Experimental: (§1) Multicenter, randomized, double-blind, parallel-group, placebo-controlled, drug-referenced, fixed-dose studies were conducted to evaluate the efficacy and safety of vortioxetine in the acute treatment of adult patients with MDD. A total of 595 individuals meeting the diagnostic criteria from the DSM-IV-TR for recurrent MDD were included in the studies, TAK-315, -316 and -317. The current major depressive disorder for each individual was confirmed by the Structured Clinical Interview for DSM Disorders (SCID). […] Individuals were treated with 10, 15 or 20 mg vortioxetine, or a different drug, or administered a placebo daily for 8 weeks.
(§2) Subjects were seen weekly during the first 2 weeks of treatment and then every 2 weeks up to the end of the 8-week treatment period. The primary outcome measure was change from baseline in MADRS total score after 8 Weeks of treatment. MADRS is a depression rating scale consisting of 10 items, each rated 0 (no symptom) to 6 (severe symptom). The 10 items represent the core symptoms of depressive illness. The rating is based on a clinical interview with the patient, moving from broadly phrased questions about symptoms to more detailed ones, which allow a precise rating of severity, covering the most recent 7 days. Total score is from 0 to 60, with a higher the score being the more severe. […]

[2] = test system: adult patients with MDD; test: TAK-315 Trial: change from baseline in MADRS total score, 8 weeks of treatment
Experimental: as §1, §2

[3] = test system: adult patients with MDD; test: Combined TAK-315 and TAK-316 Trials: predicted MADRS response rate by 24-SNP placebo subgroup
Experimental: as §1
Secondary outcome measures included the proportion of responders at week 8 (responders defined as a 50% decrease in MADRS total score from baseline); a change from baseline in MADRS total score at week 8; and a change in clinical status using CGI-I score at week 8. The CGI-I scale is a 7-point scale rated from 1 (very much improved) to 7 (very much worse). The investigator rated the patient's overall improvement relative to baseline, whether or not, in the opinion of the investigator, this was entirely due to the treatment.
A main effect model was utilized to identify genes or single variants prognostic of response using the placebo samples.
In the placebo arm, the mean response rate in the subgroup [N=125; BM(+)] was 47.33% (CL: 0.38-0.57) and not in the subgroup [N=94; BM(−)] was 15.52% (CL: 0.1-0.25). The subgroup size in the placebo arm was 57.1% [BM(+)] and 42.9% [BM(−)]. […] The placebo subgroup size in the Vortioxetine 20 mg treat arm was 45.9(%) [BM(+), N=89] and 54.1% [BM(−), N=105].
FIG. 8 provides a comparison of the 24 SNP placebo model in the three trials' (TAK-315, 316 & 317) placebo arms and the 20 mg vortioxetine dose in TAK-315 and -316. […] In the placebo arm the mean response rate in the subgroup [N=187; BM(+)] was 46.63% (CL: 0.39-0.55) and not in the subgroup [N=148; BM(−)] was 17.02% (CL: 0.12-0.24). The subgroup size in the placebo arm was 55.8% [BM(+)] and 44.2% [BM(−)]. […] The subgroup size in the Vortioxetine 20 mg treat arm was 45.9% [BM(+), N=89] and 54.1% [BM(−), N=105].

[4] = 20 mg vortioxetine daily, 8 weeks

## Cc1ccc(Sc2ccccc2N2CCNCC2)c(C)c1 [vortioxetine]
[1]; [4]
  LS mean (SE) change from baseline in MADRS score: −13.87 (1.63)
[1]; 20 mg vortioxetine vs 24-SNP Placebo BM(+) subgroup, SE 2.14
  LS mean difference in MADRS change, active vs. placebo BM(+): 0.12
[2]; [4]
  LS mean (SE) change from baseline in MADRS score: −15.56 (1.67)
[2]; 20 mg vortioxetine vs 24-SNP Placebo BM(+) subgroup, SE 2.11
  LS mean difference in MADRS change, active vs. placebo BM(+): 0.12
[3]; Vortioxetine 20 mg arm (TAK-315 and -316), placebo BM(+) subgroup N=89, analysis with TAK-315/316/317 placebo arms (FIG. 8)
  mean response rate (MADRS, LSmean predicted response rate): 36.00%
[3]; Vortioxetine 20 mg arm (TAK-315 and -316), placebo BM(−) subgroup N=105, analysis with TAK-315/316/317 placebo arms (FIG. 8)
  mean response rate (MADRS, LSmean predicted response rate): 44.0%
[3]; Vortioxetine 20 mg arm, placebo BM(+) subgroup N=89, TAK-315/316 analysis (FIG. 6)
  mean response rate (MADRS, LSmean predicted response rate): 35.96%
[3]; Vortioxetine 20 mg arm, placebo BM(−) subgroup N=105, TAK-315/316 analysis (FIG. 6)
  mean response rate (MADRS, LSmean predicted response rate): 43.0%
